System: Axillary Sweating
Test: Clinical study of axillary sweating by gravimetric sweat measurement, double-blind versus placebo (water)
Format: in vivo, human
Excerpt: The purpose of the study was to determine if Labrafac® Lipophile WL 1349 is biologically active in reducing sweating. […] Some subjects received treatment with the potentially biologically active substance and some subjects received treatment with a placebo, i.e. water. Neither the subject nor the investigator knew which treatment the subject was receiving.
Two weeks after a single treatment, subjects were re-assessed by gravimetric sweat measurement to determine the degree of sweat reduction. A comparison of post-treatment sweat production between the treatment groups was made to determine the degree of sweat reduction by the potentially biologically active substance.
• able to understand and give written informed consent • ages 18-70 years of age • diagnosis of moderate to severe primary axillary hyperhidrosis • Hyperhidrosis Disease Severity Scale score of >3 (the HDSS scale is described below) • >50 mg of sweat production/axilla in 5 minutes as measured gravimetrically • willingness to use only over-the-counter deodorants during the course of the study • willingness to shave underarms prior to each study visit • female subjects must have a negative urine pregnancy test and be non-lactating at the initial (“Baseline”) study site visit • patients should be in good general health as determined by the investigator and free of any disease that may interfere with study evaluations
The sweat production of the subject is measured gravimetrically by the following procedure: • The subject was placed in a room with relatively constant temperature and humidity for at least 30 min. • The subject was placed in a semi-reclining position with the axilla fully exposed and the arm resting comfortably above the head. • The subject's axilla was dried gently with a cotton gauze pad. • The investigator used a forceps to place one filter paper (90 mm diameter) on a balance sensitive to 0.1 mg and recorded its weight. • The investigator used a forceps to place the measured filter paper on the axilla, covered it with plastic and taped the edges of the bag against the subject's skin with hypoallergenic tape to form a seal around the plastic bag. • After 5 minutes, the investigator gently removed the tape and plastic from the subject's axilla and then, using forceps, immediately placed the filter paper onto the scale to record its weight. The scale was then dried and zero balanced. • This measurement was then repeated as described above with the other axilla.
If the subject was eligible for treatment on this basis, the subject was then treated. For treatment, one of the study preparations (0.3 mL/axilla) was applied topically with a gloved finger by the investigator to the subject's skin of the axilla. The preparation was administered in small increments to avoid run-off. The liquid was rubbed-in until vanished. […]
The subject was scheduled for a follow-up office visit two weeks after the treatment. At the follow-up office visit, the subject was questioned as to their compliance with the instructions regarding which medications not to use between treatment and the two week follow-up office visit. […] If the subject was compliant, the subject was re-assessed using the gravimetric sweat measurement procedure.
The study was conducted at multiple study sites and conducted in compliance with Good Clinical Practice standards. […] Two weeks after the treatment, each subject was re-assessed by gravimetric sweat measurement. […]

Compound: CCCCCCCCCCCCCC(=O)OC(C)C [Isopropyl Myristate]
- greater effectiveness in reducing sweat production than subjects treated with placebo (1.89 mg per axilla topical, based on share of subjects with at least 30% reduction): 191%
- conclusion on activity in reducing sweat production (1.89 mg per axilla topical, two weeks after treatment): biologically active in reducing sweat production
- percent of subjects with at least a 30% reduction in sweat production compared to Baseline (1.89 mg per axilla topical, two weeks after treatment, control group 29%): 55%
- greater reduction in sweat production than the subjects in the control group (1.89 mg per axilla topical, two weeks after treatment, versus placebo (53 mg reduction)): 195%
- reduction in sweat production (average) as measured by gravimetric sweat measurement (subjects with primary axillary hyperhidrosis, single topical treatment, 1.89 mg per axilla, two weeks after treatment, 5 minute collection): 103 mg
